Experimental data reported in BindingDB's records for patent US11053253 (Achillion Pharmaceuticals, 2021).

Molecular target: Complement factor D (Homo sapiens, UniProt P00746)
Experiment: Human Factor D Assay
Procedure: Human Factor D (purified from human serum, Complement Technology, Inc.) at 80 nM final concentration is incubated with test compound at various concentrations for 5 min at room temperature in 50 mM Tris, 1M NaCl, pH 7.5. A synthetic substrate Z-L-Lys-SBzl and DTNB (Ellman's reagent) are added to final concentrations of 100 µM each. Absorbance at 405 nm (A405) is recorded at 30 second intervals for 30 minutes using a microplate spectrophotometer. IC50 values are calculated by nonlinear regression of Complement Factor D reaction rates as a function of test compound concentration.

Sequence of Complement factor D (P00746 whole entry): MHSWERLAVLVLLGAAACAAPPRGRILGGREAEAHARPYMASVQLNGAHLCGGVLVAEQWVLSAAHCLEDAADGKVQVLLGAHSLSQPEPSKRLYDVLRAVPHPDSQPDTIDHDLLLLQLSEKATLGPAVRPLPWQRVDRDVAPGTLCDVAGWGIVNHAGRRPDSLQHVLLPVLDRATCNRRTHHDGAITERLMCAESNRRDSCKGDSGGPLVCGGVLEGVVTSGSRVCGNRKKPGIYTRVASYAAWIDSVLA

Structure (SMILES)	IC50
CC(=O)c1nn(CC(=O)N2[C@H]3C[C@@]4(C=CCCCN(C)S(=O)(=O)Cc5ccc(Br)nc5NC3=O)C[C@@H]24)c2ccc(-c3cnc(C)nc3)cc12 [US11053253, Cmp No. T-215]	< 1000 nM
CC(=O)c1nn(CC(=O)N2[C@H]3C[C@@]4(C=CCCCN(C)S(=O)(=O)Cc5ccc(Br)nc5NC3=O)C[C@@H]24)c2c(C)cc(-c3cnc(C)nc3)cc12 [US11053253, Cmp No. T-216]	< 1000 nM
CC(=O)c1nn(CC(=O)N2[C@H]3C[C@]4(C[C@@H]24)Cn2ccc(n2)/C=C/COCc2ccc(Br)nc2NC3=O)c2ccc(-c3cnc(C)nc3)cc12 [US11053253, Cmp No. T-67]	< 1000 nM
CC(=O)c1nn(CC(=O)N2[C@H]3C[C@@]4(COCC=CCOCc5cc(Br)nc(c5)NC3=O)C[C@@H]24)c2cnc(-c3cnc(C)nc3)cc12 [US11053253, Cmp No. T-83]	< 1000 nM
CC(=O)c1nn(CC(=O)N2[C@H]3C[C@]4(C[C@@H]24)Cn2ccc(n2)/C=C/COCc2ccc(Br)nc2NC3=O)c2cnc(-c3cnc(C)nc3)cc12 [US11053253, Cmp No. T-68]	< 1000 nM
